Measured values published in US20160046597A1, “RORC2 INHIBITORS AND METHODS OF USE THEREOF” (PFIZER INC., priority 2013, published 2016).

Molecular target: T1, RORC2 ligand binding domain (6-His-RORC2 LBD) (Homo sapiens, UniProt P51449)
T1 construct: made in house; host or cells: E. coli
T1 sequence (P51449 269-508 limits assumed): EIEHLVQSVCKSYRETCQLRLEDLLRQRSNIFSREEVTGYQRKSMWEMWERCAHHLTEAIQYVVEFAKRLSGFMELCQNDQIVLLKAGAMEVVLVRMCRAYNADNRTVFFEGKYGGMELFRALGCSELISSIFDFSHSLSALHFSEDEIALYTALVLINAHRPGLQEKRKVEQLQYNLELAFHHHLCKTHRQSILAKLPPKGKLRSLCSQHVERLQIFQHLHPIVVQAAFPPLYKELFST
Assay: Co-activator recruitment by TR-FRET (RORC2 FRET)
Format: biochemical
Conditions: 6.3 nM RORC2 LBD, 200 nM SRC1-2 coactivator peptide, 3 hours room temperature
Source text: The activity of compound of the invention can be determined by a co-activator recruitment by TR-FRET (time-resolved fluorescence resonance energy transfer) assay. […] Due to the long lasting fluorescence emission of Europium, the non-specific, short-lived fluorescence is time-resolved (TR) from the fluorescence of interest. Inhibitors of the interaction of receptor and coactivator peptide are detected by a decrease in TR-FRET signal.
Specifically, in one embodiment the aforementioned assay was performed as outlined below. The assay was carried out in black polystyrene, 384-well plates in a total assay volume of 50.5 μL. The assay buffer contained 50 mM TRIS-HCL pH 7.5, 1 mM NaCl, 2 mM MgCl2, 0.5 mg/mL bovine serum albumin, and 5 mM dithiothreitol.

| SMILES | IC50 |
| --- | --- |
| O=C(O)c1cccc(C(=O)Nc2ccc3[nH]cc(C4CCN(C(=O)C5CCCC5)CC4)c3c2)c1 [Example 48, 3-({3-[1-(cyclopentylcarbonyl)piperidin-4-yl]-1H-indol-5-yl}carbamoyl)benzoic acid] | 211 nM |
| O=C(Nc1ccc2[nH]cc(C3CCN(C(=O)C4CCCC4)CC3)c2c1)c1cccc2ncsc12 [Example 49, N-{3-[1-(cyclopentylcarbonyl)piperidin-4-yl]-1H-indol-5-yl}-1,3-benzothiazole-7-carboxamide] | 1380 nM |
| NC(=O)c1cccc(C(=O)Nc2ccc3[nH]cc(C4CCN(C(=O)C5CCCC5)CC4)c3c2)c1 [Example 50, N-{3-[1-(cyclopentylcarbonyl)piperidin-4-yl]-1H-indol-5-yl}isophthalamide] | 1430 nM |
| O=C(Nc1ccc2[nH]cc(C3CCN(C(=O)C4CCCC4)CC3)c2c1)c1ccc2[nH]cnc2c1 [Example 51, N-{3-[1-(cyclopentylcarbonyl)piperidin-4-yl]-1H-indol-5-yl}-1H-benzimidazole-5-carboxamide] | 871 nM |
| Cn1cnc2cc(C(=O)Nc3ccc4[nH]cc(C5CCN(C(=O)C6CCCC6)CC5)c4c3)ccc21 [Example 52, N-{3-[1-(cyclopentylcarbonyl)piperidin-4-yl]-1H-indol-5-yl}-1-methyl-1H-benzimidazole-5-carboxamide] | 1110 nM |
| Cc1ncc(C(=O)Nc2ccc3[nH]cc(C4CCN(C(=O)C5CCCC5)CC4)c3c2)cc1C#N [Example 53, 5-cyano-N-{3-[1-(cyclopentylcarbonyl)piperidin-4-yl]-1H-indol-5-yl}-6-methylnicotinamide] | 124 nM |
| Cn1cc(C2CCN(C(=O)C3CCCC3)CC2)c2cc(NC(=O)N3CCCC(C#N)C3)ccc21 (stereo not drawn) [Example 58, 3-cyano-N-(3-(1-(cyclopentanecarbonyl)piperidin-4-yl)-1-methyl-1H-indol-5-yl)piperidine-1-carboxamide] | 256 nM |
| CN(CCC#N)C(=O)Nc1ccc2c(c1)c(C1CCN(C(=O)C3CCCC3)CC1)cn2C [Example 59, 1-(2-cyanoethyl)-3-{3-[1-(cyclopentylcarbonyl)piperidin-4-yl]-1-methyl-1H-indol-5-yl}-1-methylurea] | 330 nM |
| Cn1cc(C2CCN(C(=O)C3CCCC3)CC2)c2cc(NC(=O)N3CC[C@H](C#N)C3)ccc21 [Example 60, (3S)-3-cyano-N-{3-[1-(cyclopentylcarbonyl)piperidin-4-yl]-1-methyl-1H-indol-5-yl}pyrrolidine-1-carboxamide] | 216 nM |
| Cn1cc(C2CCN(C(=O)C3CCCC3)CC2)c2cc(NC(=O)N3CC(CC#N)C3)ccc21 [Example 61, 3-(cyanomethyl)-N-{3-[1-(cyclopentylcarbonyl)piperidin-4-yl]-1-methyl-1H-indol-5-yl}azetidine-1-carboxamide] | 335 nM |
| Cn1cc(C2CCN(C(=O)C3CCCC3)CC2)c2cc(NC(=O)N3CCOC(C#N)C3)ccc21 (stereo not drawn) [Example 62, 2-cyano-N-{3-[1-(cyclopentylcarbonyl)piperidin-4-yl]-1-methyl-1H-indol-5-yl}morpholine-4-carboxamide] | 425 nM |
| Cn1cc(C2CCN(C(=O)C3CCCC3)CC2)c2cc(NC(=O)N3CC(C#N)C3)ccc21 [Example 63, 3-cyano-N-{3-[1-(cyclopentylcarbonyl)piperidin-4-yl]-1-methyl-1H-indol-5-yl}azetidine-1-carboxamide] | 193 nM |
| Cn1cc(C2CCN(C(=O)C3CCCC3)CC2)c2cc(NS(=O)(=O)c3ccc(F)cc3)ccc21 [Example 64, N-(3-(1-(cyclopentylcarbonyl)piperidin-4-yl)-1-methyl-1H-indol-5-yl)-4-fluorobenzenesulfonamide] | 5.8 nM |
| Cn1cc(C2CCN(C(=O)C3CCCC3)CC2)c2cc(NS(=O)(=O)c3cnc(N)nc3)ccc21 [Example 65, 2-amino-N-{3-[1-(cyclopentylcarbonyl)piperidin-4-yl]-1-methyl-1H-indol-5-yl}pyrimidine-5-sulfonamide] | 37.3 nM |
| Cn1cc(C2CCN(C(=O)C3CCCC3)CC2)c2cc(NS(=O)(=O)c3cccc(F)c3)ccc21 [Example 66, N-{3-[1-(cyclopentylcarbonyl)piperidin-4-yl]-1-methyl-1H-indol-5-yl}-3-fluorobenzenesulfonamide] | 7 nM |
| Cn1cc(C2CCN(C(=O)C3CCCC3)CC2)c2cc(NS(=O)(=O)c3cccc(C#N)c3)ccc21 [Example 67, 3-cyano-N-{3-[1-(cyclopentylcarbonyl)piperidin-4-yl]-1-methyl-1H-indol-5-yl}benzenesulfonamide] | 11.4 nM |
| Cn1cc(C2CCN(C(=O)C3CCCC3)CC2)c2cc(NS(=O)(=O)c3ccc(C#N)cc3)ccc21 [Example 71, 4-cyano-N-{3-[1-(cyclopentylcarbonyl)piperidin-4-yl]-1-methyl-1H-indol-5-yl}benzenesulfonamide] | 23.9 nM |
| Cn1cc(C2CCN(C(=O)C3CCCC3)C2)c2cc(NC(=O)c3cccc(C#N)c3)ccc21 (stereo not drawn) [Example 79, 3-cyano-N-(3-(1-(cyclopentylcarbonyl)pyrrolidin-3-yl)-1-methyl-1H-indol-5-yl)benzamide] | 199 nM |

Results, then the compound that gave them:

| IC50 | SMILES |
| --- | --- |
| 6.5 nM | Cn1cc(C2CCN(C(=O)C3CCCC3)CC2)c2cc(NS(=O)(=O)c3ccccc3)ccc21 [Example 68, N-{3-[1-(cyclopentylcarbonyl)piperidin-4-yl]-1-methyl-1H-indol-5-yl}benzenesulfonamide] |
| 270 nM | Cn1cnc(S(=O)(=O)Nc2ccc3c(c2)c(C2CCN(C(=O)C4CCCC4)CC2)cn3C)c1 [Example 69, N-{3-[1-(cyclopentylcarbonyl)piperidin-4-yl]-1-methyl-1H-indol-5-yl}-1-methyl-1H-imidazole-4-sulfonamide] |
| 7.2 nM | Cn1cc(C2CCN(C(=O)C3CCCC3)CC2)c2cc(NS(=O)(=O)C3CCCCC3)ccc21 [Example 70, N-{3-[1-(cyclopentylcarbonyl)piperidin-4-yl]-1-methyl-1H-indol-5-yl}cyclohexanesulfonamide] |
| 128 nM | Cn1cc(C2CCN(C(=O)C3CCCC3)CC2)c2cc(NS(=O)(=O)C3CC3)ccc21 [Example 72, N-{3-[1-(cyclopentylcarbonyl)piperidin-4-yl]-1-methyl-1H-indol-5-yl}cyclopropanesulfonamide] |
| 67.7 nM | CCCS(=O)(=O)Nc1ccc2c(c1)c(C1CCN(C(=O)C3CCCC3)CC1)cn2C [Example 73, N-{3-[1-(cyclopentylcarbonyl)piperidin-4-yl]-1-methyl-1H-indol-5-yl}propane-1-sulfonamide] |
| 53 nM | COCCCS(=O)(=O)Nc1ccc2c(c1)c(C1CCN(C(=O)C3CCCC3)CC1)cn2C [Example 74, N-{3-[1-(cyclopentylcarbonyl)piperidin-4-yl]-1-methyl-1H-indol-5-yl}-3-methoxypropane-1-sulfonamide] |
| 14.7 nM | COc1ccc(S(=O)(=O)Nc2ccc3c(c2)c(C2CCN(C(=O)C4CCCC4)CC2)cn3C)cc1 [Example 75] |
| 22.9 nM | Cn1cc(C2CCN(C(=O)C3CCCC3)CC2)c2cc(NS(=O)(=O)c3cccnc3)ccc21 [Example 76, N-{3-[1-(cyclopentylcarbonyl)piperidin-4-yl]-1-methyl-1H-indol-5-yl}pyridine-3-sulfonamide] |
| 50.5 nM | Cn1cc(C2CCN(C(=O)C3CCCC3)CC2)c2cc(NS(=O)(=O)Cc3ccccc3)ccc21 [Example 77, N-{3-[1-(cyclopentylcarbonyl)piperidin-4-yl]-1-methyl-1H-indol-5-yl}-1-phenylmethanesulfonamide] |
